Key:
Caco-2 monolayer = assay: Caco-2 Permeability Assay; format: in vitro ADME, human
Method in brief: (§1)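 Bidirectional transport at 37 °C for 90 min, 10 μM donor concentration, with or without Pgp inhibitor, across 21-day Caco-2 monolayers with TEER >600 […] in HEPES-buffered HBSS, pH 7.4. LC-MS/MS of donor and receiver samples gives Papp, B→A/A→B efflux ratio and mass recovery.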

[1] = Stability in Simulated Gastric Fluid (SGF); format: in vitro ADME; set-up: key: % parent compound remaining relative to 0-minute sample
Method in brief: (§2)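 Percent of parent remaining relative to time zero was measured by LC-MS/MS over 0–60 min at 37 °C, 150 rpm. Test compound was 2 μg/mL final in pepsin-containing SGF, pH 1.2, or pancreatin-containing SIF, pH 6.8. Degradation half-life was derived from the log-linear decay where enough points allowed.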

[2] = Stability in Simulated Intestinal Fluid (SIF); format: in vitro ADME; set-up: key: % parent compound remaining relative to 0-minute sample
Method in brief: as §2

Plasma Stability = format: in vitro ADME, human
Method in brief: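 Parent compound quantified by LC-MS/MS after acetonitrile precipitation, reported as percent of control remaining (triplicate). Incubation: 1 hour, 37° C, fresh human plasma, compound at 1 μM.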

[3] = Caco-2 Permeability Assay; format: in vitro ADME, human; details: human, Caco-2, pH 7.4, Caco-2 monolayer
Method in brief: as §1

[4] = simulated gastric fluid, remaining at 1 h
[5] = simulated intestinal fluid, remaining at 1 h
[6] = % remaining after 1 h in simulated gastric fluid
[7] = % remaining after 1 h in simulated intestinal fluid
[8] = % remaining after 1 h in human plasma
[9] = donor 10 μM, 90 minutes, 37° C., direction not given
[10] = % remaining at 1 h, SGF with pepsin pH 1.2, 2 μg/mL, 37° C.
[11] = % remaining at 1 h, SIF with pancreatin pH 6.8, 2 μg/mL, 37° C.
[12] = % remaining at 1 h, human plasma, 1 μM, 37° C.

Molecule	Caco-2 Papp (Caco-2 monolayer; Caco-2 monolayer) [×10⁻⁶ cm/s]	SGF [1, 4] [% remaining]	SIF [2, 5] [% remaining]	human Plasma stability (Plasma Stability; human plasma, remaining at 1 h) [% remaining]	Papp at 90 min, 10 µM [3] [×10⁻⁶ cm/s]	further results
1-tert-butyl 2-{4-oxo-1-[2-(propan-2-yloxy)ethyl]-2-sulfanylidene-1H,2H,3H,4H,5H-pyrrolo[3,2-d]pyrimidin-5-yl}methyl (2R)-pyrrolidine-1,2-dicarboxylate [Example 393]	0.11	99	94	92	–	–
5-[{[4-(carbamoyloxy)butoxy]carbon-yl}oxy)methyl]-1-[2-(propan-2-yloxy)ethyl]-2-sulfanylidene-1H,2H,3H,4H,5H-pyrrolo[3,2-d]pyrimidin-4-one [Example 411]	<0.107	–	–	–	–	SGF [1, 6]: 92% remaining; SIF [2, 7]: 22% remaining; human Plasma stability (Plasma Stability; [8]): 1% remaining
5-{({2-[2-(carbamoyloxy)ethoxy]ethoxy}car-bonyl)oxy]methyl}-1-[2-(propan-2-yloxy)ethyl]-2-sulfanylidene-1H,2H,3H,4H,5H-pyrrolo[3,2-d]pyrimidin-4-one [Example 402]	24.6	–	–	–	–	SGF [1, 6]: 99% remaining; SIF [2, 7]: 89% remaining; human Plasma stability (Plasma Stability; [8]): 99% remaining
5-{[2-({[(5-{[(2R)-2-{[(tert-butoxy)carbonyl]amino}-4-methylpentanoyl]oxy}penta-noyl)oxy]methyl}sulfanyl)-4-oxo-1-[2-(propan-2-yloxy)ethyl]-1H,4H,5H-pyrrolo[3,2-d]pyrimidin-5-yl]methoxy}-5-oxopentyl (2R)-2-{[(tert-butoxy)carbonyl]amino}-4-methylpentanoate [Example 348]	<0.0965	88	20	33	–	–
5-{[2-({[(5-{[(2S)-2-{[(tert-butoxy)carbonyl]amino}-4-methylpentanoyl]oxy}penta-noyl)oxy]methyl}sulfanyl)-4-oxo-1-[2-(propan-2-yloxy)ethyl]-1H,4H,5H-pyrrolo[3,2-d]pyrimidin-5-yl]methoxy}-5-oxopentyl (2S)-2-{[(tert-butoxy)carbonyl]amino}-4-methylpentanoate [Example 343]	–	–	–	–	–	Caco-2 Papp (Caco-2 monolayer; Caco-2): 4.67 ×10⁻⁶ cm/s; SGF ([1]; % remaining @ 1 h): 82% remaining; SIF ([2]; % remaining @ 1 h): 29% remaining; human Plasma stability (Plasma Stability; % remaining @ 1 h): 1% remaining
5-{[({2-[2-(2-{[(tert-butoxy)carbonyl]amino}ethoxy)eth-oxy]ethoxy}carbonyl)oxy]methyl}-1-[2-(propan-2-yloxy)ethyl]-2-sulfanylidene-1H,2H,3H,4H,5H-pyrrolo[3,2-d]pyrimidin-4-one [Example 370]	1.54	99	35	1	–	–
15-[2-(propan-2-yloxy)ethyl]-14-sulfanylidene-3,5,9,11-tetraoxa-1,13,15-triazatricyclo[11.5.2.0^{16,19}]icosa 16(19),17-diene-4,10,20-trione [Example 409]	<0.107	–	–	–	–	SGF [1, 6]: 94% remaining; SIF [2, 7]: 28% remaining; human Plasma stability (Plasma Stability; [8]): 4% remaining
17-[2-(propan-2-yloxy)ethyl]-16-sulfanylidene-3,5,8,11,13-pentaoxa-1,15,17-triazatricyclo[13.5.2.0^{18,21}]docosa-18(21),19-diene-4,12,22-trione [Example 404]	5.08	–	–	–	–	SGF [1, 6]: 92% remaining; SIF [2, 7]: 86% remaining; human Plasma stability (Plasma Stability; [8]): 77% remaining
CC(C)OCCn1c(=S)[nH]c(=O)c2c1ccn2COC(=O)[C@H]1CCCN1C(=O)OC(C)(C)C [Example 3, 1-tert-butyl 2-{4-oxo-1-[2-(propan-2-yloxy)ethyl]-2-sulfanylidene-1H,2H,3H,4H,5H-pyrrolo[3,2-d]pyrimidin-5-yl} methyl (2R)-pyrrolidine-1,2-dicarboxylate]	–	–	–	–	–	Caco-2 Papp (Caco-2 monolayer; [9]): 41.9 ×10⁻⁶ cm/s; SGF [1, 10]: 84%; SIF [2, 11]: 89%; human Plasma stability (Plasma Stability; [12]): 99%
CC(C)OCCn1c(=S)[nH]c(=O)c2c1ccn2COC(=O)[C@H]1CCCN1C(=O)OCC1c2ccccc2-c2ccccc21 [Example 5, 1-(9H-fluoren-9-ylmethyl) 2-{4-oxo-1-[2-(propan-2-yloxy)ethyl]-2-sulfanylidene-1H, 2H,3H,4H,5H-pyrrolo[3,2-d]pyrimidin-5-yl}methyl(2R)-pyrrolidine-1,2-dicarboxylate]	–	–	–	–	–	Caco-2 Papp (Caco-2 monolayer; [9]): 14 ×10⁻⁶ cm/s; SGF [1, 10]: 90%; SIF [2, 11]: 76%; human Plasma stability (Plasma Stability; [12]): 97%
CC(C)OCCn1c(=S)[nH]c(=O)c2c1ccn2COC(=O)CCCCNC(=O)CN.O=C(O)C(F)(F)F [Example 15, trifluoroacetic acid {4-oxo-1-[2-(propan-2-yloxy)ethyl]-2-sulfanylidene-1H,2H,3H,4H,5H-pyrrolo[3,2-d]pyrimidin-5-yl} methyl 5-(2-aminoacetamido)pentanoate]	>0.567	–	–	–	–	SGF ([1]; % remaining at 1 h in simulated gastric fluid): 100%; SIF ([2]; % remaining at 1 h in simulated intestinal fluid): 4% remaining; human Plasma stability (Plasma Stability; % remaining at 1 h in human plasma): 9% remaining
CC(C)OCCn1c(=S)n(COC(=O)[C@H](C)N)c(=O)c2c1ccn2CO.O=C(O)C(F)(F)F [Example 290, trifluoroacetic acid [5-(hydroxymethyl)-4-oxo-1-[2-(propan-2-yloxy)ethyl]-2-sulfanylidene-1H,2H,3H,4H,5H-pyrrolo[3,2-d]pyrimidin-3-yl]methyl (2S)-2-aminopropanoate]	–	–	–	–	–	Caco-2 Papp (nm/s) (Caco-2 monolayer): unstable; SGF ([1]; % remaining @ 1 h): 98% @ 1 h; SIF ([2]; % remaining @ 1 h): 10% @ 1 h
CC(C)OCCn1c(=S)n(COC(=O)CCCOC(=O)[C@@H](Cc2ccccc2)NC(=O)OC(C)(C)C)c(=O)c2c1ccn2COC(=O)CCCOC(=O)[C@@H](Cc1ccccc1)NC(=O)OC(C)(C)C [Example 365, (3-{[(4-{[(2R)-2-{[(tert-butoxy)carbonyl]amino}-3-phenylpropanoyl]oxy}butanoyl)oxy]methyl}-4-oxo-1-[2-(propan-2-yloxy)ethyl]-2-sulfanylidene-1H,2H,3H,4H,5H-pyrrolo[3,2-d]pyrimidin-5-yl)methyl 4-{[(2R)-2-{[(tert-butoxy)carbonyl]amino}-3-phenylpropanoyl]oxy}butanoate]	–	85	5	11	< 0.263	–
CSCC[C@@H](N)C(=O)OCCC(=O)OCn1ccc2c1c(=O)[nH]c(=S)n2CCOC(C)C.O=C(O)C(F)(F)F [Example 366, trifluoroacetic acid 3-oxo-3-({4-oxo-1-[2-(propan-2-yloxy)ethyl]-2-sulfanylidene-1H,2H,3H,4H,5H-pyrrolo[3,2-d]pyrimidin-5-yl}methoxy)propyl (2R)-2-amino-4-(methylsulfanyl)butanoate]	–	76	2	74	< 0.76	–
CC(C)C[C@H](N)C(=O)OCCC(=O)OCn1ccc2c1c(=O)[nH]c(=S)n2CCOC(C)C.O=C(O)C(F)(F)F [Example 367, trifluoroacetic acid 3-oxo-3-({4-oxo-1-[2-(propan-2-yloxy)ethyl]-2-sulfanylidene-1H,2H,3H,4H,5H-pyrrolo [3,2-d]pyrimidin-5-yl}methoxy)propyl (2S)-2-amino-4-methylpentanoate]	–	100	0	1	< 0.108	–
CC(C)C[C@@H](N)C(=O)OCCC(=O)OCn1ccc2c1c(=O)[nH]c(=S)n2CCOC(C)C.O=C(O)C(F)(F)F [Example 368, trifluoroacetic acid 3-oxo-3-({4-oxo-1-[2-(propan-2-yloxy)ethyl]-2-sulfanylidene-1H,2H,3H,4H,5H-pyrrolo[3,2-d]pyrimidin-5-yl}methoxy)propyl (2R)-2-amino-4-methylpentanoate]	–	100	1	1	0.12	–
CC(C)OCCn1c(SCOC(=O)OCCOCCNC(=O)OC(C)(C)C)nc(=O)c2[nH]ccc21 [Example 369, 2-{[{{[2-(2-{[(tert-butoxy)carbonyl]amino}ethoxy)eth-oxy]carbonyl}oxy)methyl]sulfanyl}-1-[2-(propan-2-yloxy)ethyl]-1H,4H,5H-pyrrolo[3,2-d]pyrimidin-4-one]	–	89	1	1	< 0.107	–
CSCC[C@@H](NC(=O)OC(C)(C)C)C(=O)NCCOCCOC(=O)OCn1ccc2c1c(=O)[nH]c(=S)n2CCOC(C)C [Example 389, (2R)-2-{[(tert-butoxy)carbonyl]amino}-4-(methylsulfanyl)-N-[2-(2-{[{{4-oxo-1-[2-(propan-2-yloxy)ethyl]-2-sulfanylidene-1H,2H,3H,4H,5H-pyrrolo[3,2-d]pyrimidin-5-yl}methoxy)carbonyl]oxy}ethoxy)eth-yl]butanamide]	–	98	60	1	5.94	–

Source: patent US20240067651A1 (Biohaven Therapeutics Ltd., priority 2019, published 2024)
